Measured values published in patent publication US7897789B2, “Vitamin D receptor modulators” (Eli Lilly and Company, priority 2003, dated 2011).
Values joined by “and” are separate entries in the source; they are usually repeats but may differ in a detail not shown here. Identical values can stand only once. Like-named read-outs stand apart in the source and are kept apart here.

Columns and labels:
[1] = test system: DBF mice; conditions: in vivo, po
Description: The Mouse Hypercalcemia Assay
(§1) The Mouse Hypercalcemia Assay is a six day hypercalcemia test for toxicity and selectivity.
(§2) (4) Materials and Method for the Mouse Hypercalcemia Assay:
(§3) Weanling, virus-antibody-free, five to six weeks old female DBF mice (Harlan, Indianapolis, Ind.) are used for all the studies. Animals are allowed to acclimate to local vivarium conditions for 2 days. […] The animals then are divided into groups with 4-5 mice per group. Different doses of test compounds prepared in 10% Ethanol and 90% sesame oil are administered to mice orally via gavage for 6 days. 1α-25(OH)2D3 0.5 μg/kg/d was also given to one group of mice as the positive control. […] Raw data of group differences is assessed by analysis of variance (ANOVA) using Fisher's protected least significant difference (PLSD) where the significance level was P<0.05.

[2] = target: T1, RXR-VDR heterodimer (Homo sapiens, UniProt P11473); test: RXR-VDR heterodimerization assay (SaOS-2 cells); type: cell-based; conditions: Gal4-RXR / VP16-VDR-LBD luciferase reporter, Table 1
T1 construct: Add the Gal4-RXR-DEF and VP16-VDR-LBD; expressed in transfected cells; host or cells: SaOS-2 cells
T1 sequence (P11473 127-423 limits assumed): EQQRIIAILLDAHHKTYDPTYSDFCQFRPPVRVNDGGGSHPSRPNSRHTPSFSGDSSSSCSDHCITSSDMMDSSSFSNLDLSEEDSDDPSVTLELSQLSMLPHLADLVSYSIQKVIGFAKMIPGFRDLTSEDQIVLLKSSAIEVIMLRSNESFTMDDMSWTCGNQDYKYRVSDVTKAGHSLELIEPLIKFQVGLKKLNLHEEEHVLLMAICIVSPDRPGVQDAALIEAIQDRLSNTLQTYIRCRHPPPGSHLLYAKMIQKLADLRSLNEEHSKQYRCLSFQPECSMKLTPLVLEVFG
T1 sequence (P19793 201-462 partner limits assumed): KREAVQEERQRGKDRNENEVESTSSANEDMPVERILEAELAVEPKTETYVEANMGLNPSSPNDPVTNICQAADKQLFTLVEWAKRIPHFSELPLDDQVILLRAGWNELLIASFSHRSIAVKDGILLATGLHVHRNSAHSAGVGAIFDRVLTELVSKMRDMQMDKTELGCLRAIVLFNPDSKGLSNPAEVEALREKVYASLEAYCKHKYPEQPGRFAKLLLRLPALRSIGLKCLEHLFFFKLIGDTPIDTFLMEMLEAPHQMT
Description: 1. The RXR-VDR HeterodimerAssay:
This assay provides the VDR activity of a test compound.
(1) Materials and Method for RXR-VDR Heterodimerization Assay:
Luciferase Assay Reagent: • Use Steady-Glo Luciferase Reagent from Promega (Cat #E2550) Consists of: a. E2533 Assay Substrate, lyopholized product and b. E2543 Assay Buffer. • Thaw at room temperature • Store Cell Harvesting Aspirate media from culture flask, rinse cells with HBSS and aspirate. Add trypsin and incubate. When cells appear detached, resuspend cells in growth media. Transfer into a new flask with fresh growth media for passaging the cells. Plate well plates and two extra plates A. Cell Count Mix the cell suspension using pipette Use Hematocytometer to count the cells Load cell suspension onto the hemocytometer chamber Count cells. […] In sterile flask add cell suspension to plating media. Mix. Add cells/well. Place the cells in the incubator. Cells should be about 75% confluent prior to transfection. DAY 2: Transfection Step 1: DNA and Media Add plain DMEM media to tubes for mixing the DNA Add the Reporter gene pFR-LUC Add the Gal4-RXR-DEF and VP16-VDR-LBD Step 2: FuGENE and Media Prepare plain DMEM media in a ubes for mixing FuGENE Add FuGENE 6 Transfection Reagent Incubate Step 3: FuGENE, DNA and Media Complex Add FuGENE Media complex from step 2 to DNA Media complex from step 1 Incubate Step 4: FuGENE, DNA and Media Complex to-well plate Add FuGENE-DNA-Media complex from step 3 to each plate Incubate. […] Day 4: Luciferase Assay Read the plates after drug treatment Remove part of media from all the wells and leave remainder Add Steady-Glo Luciferase Reagent mixture/wells Incubate Count each well using a Luminescence counter, Top Count NXT by Packard
Set a delay between plates to reduce the background.

[3] = test system: IL-10; test: Human IL-10 induction assay in PBMCs; type: cell-based; conditions: PBMC; TPA/PHA treated human PBMCs; Table 2
Excerpt: 6. The IL-10 Induction Assay
This is an in vitro efficacy assay for psoriasis, abscess and adhesion. Psoriasis involves both keratinocytes and immune cells. IL-10 is a unique cytokine because it is anti-inflammatory and immunosuppressive. This assay tells us whether a VDRM is able to function as an agonist in PBMCs ([…]) or not.
(6) Materials and Method for Human IL-10 Induction Assay:
Isolation of Peripheral Blood Mononuclear Cells (PBMCs):
Stimulation of PBMC: • L. Prepare TPA in DMSO. • M. Dissolve PHA in water. • N. Plate TPA/PHA treated PBMCs in well plates. • O. Incubate.
Sample Collection and Assay: • S. Remove all the cells by centrifugation and assay the supernatant for IL-10 by immunoassay. • T. Perform IL-10 assay using anti-human IL-10 antibody coated beads, as described by the manufacturer (Linco Research Inc., St. Charles, Mo.). (8) CaT1 Assay

[4] = test system: KERtr cells; test: Keratinocyte proliferation assay; type: cell-based; conditions: Homo sapiens, 72 h, BrdU incorporation, Table 2, read-out: Kera. Prolif. IC50
Description: 5. The Keratinocyte Proliferation Assay
This Assay is indicative for the treatment of psoriasis.
(5) The Keratinocyte Proliferation Assay:
KERtr cells (Human skin keratinocyte transformed with a retrovirus vector, obtained from ATCC) were plated in 96-well flat-bottomed plates (3000 cells/well) in 100 μl keratinocyte serum free medium supplemented with bovine pituitary extract in the absence of EGF (Life Technologies, Rockville, Md.) and incubated at 37° C. for two days. The cells were treated with various concentrations of VDR ligands (ten-fold serial dilution from 10,000 nM to 0.1 nM in triplicate), dissolved in 100 μl keratinocyte serum free medium supplemented with bovine pituitary extract in the absence of EGF and incubated at 37° C. for 72 hr. […] Potency values (IC50) values were determined as the concentration (nM) of compound that elicited a half-maximal response.

[5] = test system: DBF mice; test: Mouse hypercalcemia assay; conditions: oral gavage for 6 days, serum ionized calcium 6 hours after last dosing; Table 1
Description: The Mouse Hypercalcemia Assay
as §1, §2, §3

[6] = test system: rat osteocalcin promoter; test: OCN (osteocalcin) promoter assay; type: cell-based; conditions: Rattus norvegicus, 48 h, RG-15 (ROS 17/2.8) cells, 48 hr treatment; Table 1
Description: 3. The OCN (Osteocalcin) Promoter Assay
The OCN Promoter Assay is an indicator and marker for osteoporosis. […] Preferred assay results are less than 50 nM.
(3) Materials and Method for the OCN Promoter Assay:
The activation of osteocalcin by VDR ligands was evaluated in a rat osteoblast-like cell line RG-15 (ROS 17/2.8) stably expressing rat osteocalcin promoter fused with luciferase reporter gene. […] Confluent RG-15 cells maintained in DMEM/F-12 medium (3:1) containing 5% FBS, 300 μg/ml G418 and at 37° C. under 5% CO2/95% air atmosphere were trypsinized (0.25% trypsin) and plated into white opaque 96-well cell culture plates (25000 cells/well). After 24 hr, cells (in DMEM/F-12 medium+2% FBS) were treated with various concentrations of compounds, dissolved in DMSO. The final DMSO concentration remained at 0.01% (v/v). After 48 hr treatment, the medium was removed, cells were lysed with 50 μl of lysis buffer (From Luciferase reporter assay system, Roche Diagnostics, Indianapolis, Ind.) and assayed for luciferase activity using the Luciferase Reporter Gene Assay kit from Boehringer Mannheim as per manufacturer's specifications.

[7] = target: T2, VDR (Homo sapiens, UniProt P11473); test: Caco-2 cell co-transfection assay (VDR CTF); type: cell-based; conditions: Caco-2 cells, pGal4-VDR-LBD luciferase co-transfection; Table 1
T2 construct: the receptor expression vector pGal4-VDR-LBD (10 ng); expressed in transfected cells; host or cells: Caco-2 cells
T2 sequence (P11473 127-423 limits assumed): T1 sequence (P11473 127-423 limits assumed)
Description: 2. The Caco-2 Cell Co-Transfection Assay:
The Caco-2 cell assay is an indicator for the undesirable condition of hypercalcemia. This co-transfection assay is a surrogate assay for in vivo calcemic activity of VDR ligands. […] Preferred assay results are greater than 1000 nM.
(2) Materials and Method for The Caco-2 Cell Assay:
Caco-2 cells, grown in phenol red free, DMEM (Invitrogen, Carlsbad, Calif.) containing 10% charcoal-stripped FCS (Hyclone, Logan, Utah), were transfected with Fugene 6 reagent (Roche Diagnostics, Indianapolis, Ind.). Cells (5000/well) were plated 18 h before transfection in a 96 well plate. The Cells were transfected with Gal4-responsive reporter pFRLuc (150 ng, Stratagene, La Jolla Calif.) and the receptor expression vector pGal4-VDR-LBD (10 ng), along with Fugene 6 reagent (0.2 μl/well). The DNA-Fugene complex was formed by incubating the mixture for 30 min at room temperature. The cells were transfected in triplicate for 5 h, and treated with various concentrations of VDR ligands (form 0.01 nM to 10,000 nM concentration range) 18 h post-transfection. The luciferase activity was quantified using Steady-Glo reagent kit (Promega, Madison, Wis.) as per manufacturer's specifications.

Row | Mouse Hypercal [1] | Compound | EC50 [2] | IC50 [3] | IC50 [4] | Mouse Hypercal [5] | EC50 [6] | EC50 [7]
1 | 0.06 µg/kg/day | C=C1/C(=C\C=C2/CCC[C@]3(C)[C@@H]([C@H](C)CCCC(C)(C)O)CC[C@@H]23)C[C@@H](O)C[C@@H]1O [AA, 1α,25-dihydroxyvitamin D3] |  |  |  |  |  | 
2 |  | CCC(CC)(c1ccc(OCC(=O)C(C)(C)C)c(C)c1)c1cc2cc(C(=O)NCC(=O)O)ccc2s1 [Ex 19, [(2-{1-[4-(3,3-Dimethyl-2-oxo-butoxy)-3-methyl-phenyl]-1-ethyl-propyl}-benzo[b]thiophene-5-carbonyl)-amino]-acetic acid] | 114 nM and 21 nM | 149 nM | 16 nM | >300 µg/kg/day | 4.7 nM | 815 nM
3 |  | CCC(CC)(c1ccc(OCC(=O)C(C)(C)C)c(C)c1)c1cc2ccc(C(=O)NCC(=O)O)cc2s1 [Ex. 11, [(2-{1-[4-(3,3-dimethyl-2-oxo-butoxy)-3-methyl-phenyl]-1-ethyl-propyl}-benzo[b]thiophene-6-carbonyl)-amino]-acetic acid] | 45 nM | 10 nM | 2 nM | >300 µg/kg/day | 0.2 nM | 299 nM
